In PubChem BioAssay (NCI):
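Method: 48-hour compound exposure of cells in 96-well plates, five concentrations, linear interpolation of endpoints. Definition used: TGI = concentration required for complete inhibition of growth.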

Legend:
Test in all cases: inhibition of tumour cell growth, NCI panel, 48 h
SK-OV-3 ovarian = system: SK-OV-3 ovarian
HS 578T breast = system: HS 578T breast
NCI-H522 lung = system: NCI-H522 lung
OVCAR-8 ovarian = system: OVCAR-8 ovarian
SF-539 CNS = system: SF-539 CNS
EKVX NSCLC = system: EKVX NSCLC
COLO 205 colon = system: COLO 205 colon
OVCAR-5 ovarian = system: OVCAR-5 ovarian
OVCAR-4 ovarian = system: OVCAR-4 ovarian
UO-31 renal = system: UO-31 renal
K-562 leukemia = system: K-562 leukemia
SR leukemia = system: SR leukemia
HOP-92 NSCLC = system: HOP-92 NSCLC
NCI-H23 lung = system: NCI-H23 lung
NCI/ADR-RES ovarian = system: NCI/ADR-RES ovarian
T-47D breast = system: T-47D breast
U251 CNS = system: U251 CNS
A498 renal = system: A498 renal
HCT-15 colon = system: HCT-15 colon
M14 melanoma = system: M14 melanoma
HOP-62 NSCLC = system: HOP-62 NSCLC
IGROV1 ovarian = system: IGROV1 ovarian
BT-549 breast = system: BT-549 breast
SK-MEL-28 melanoma = system: SK-MEL-28 melanoma
SN12C renal = system: SN12C renal
HL-60(TB) leukemia = system: HL-60(TB) leukemia
NCI-H226 lung = system: NCI-H226 lung
SF-268 CNS = system: SF-268 CNS
SNB-19 CNS = system: SNB-19 CNS
KM12 colon = system: KM12 colon
HCT-116 colon = system: HCT-116 colon
TK-10 renal = system: TK-10 renal
SW-620 colon = system: SW-620 colon
RPMI-8226 leukemia = system: RPMI-8226 leukemia
MDA-MB-231 breast = system: MDA-MB-231 breast
MOLT-4 leukemia = system: MOLT-4 leukemia
OVCAR-3 ovarian = system: OVCAR-3 ovarian
DU-145 prostate = system: DU-145 prostate
PC-3 prostate = system: PC-3 prostate
RXF 393 renal = system: RXF 393 renal
A549 NSCLC = system: A549 NSCLC
SK-MEL-5 melanoma = system: SK-MEL-5 melanoma
LOX IMVI melanoma = system: LOX IMVI melanoma
NCI-H460 lung = system: NCI-H460 lung
UACC-62 melanoma = system: UACC-62 melanoma
CAKI-1 renal = system: CAKI-1 renal
MCF7 breast = system: MCF7 breast
786-0 renal = system: 786-0 renal
HT29 colon = system: HT29 colon
MDA-N = system: MDA-N
UACC-257 melanoma = system: UACC-257 melanoma
CCRF-CEM leukemia = system: CCRF-CEM leukemia
MALME-3M melanoma = system: MALME-3M melanoma
HCC-2998 colon = system: HCC-2998 colon
SK-MEL-2 melanoma = system: SK-MEL-2 melanoma
ACHN renal = system: ACHN renal
SF-295 CNS = system: SF-295 CNS
MDA-MB-435 = system: MDA-MB-435
SNB-75 CNS = system: SNB-75 CNS

CC(C)SC(=S)Sc1c(Cl)c(Cl)nc(Cl)c1Cl
TGI (SK-OV-3 ovarian): 32.7 µM | TGI (HS 578T breast): 44.7 µM | TGI (NCI-H522 lung): 11.6 µM | TGI (OVCAR-8 ovarian): 10.5 µM | TGI (SF-539 CNS): 24.8 µM | TGI (EKVX NSCLC): 22.8 µM | TGI (COLO 205 colon): 24.7 µM | TGI (OVCAR-5 ovarian): 33.1 µM | TGI (OVCAR-4 ovarian): 28.4 µM | TGI (UO-31 renal): 21.2 µM | TGI (K-562 leukemia): 10.7 µM | TGI (SR leukemia): 11.3 µM | TGI (HOP-92 NSCLC): 21.4 µM | TGI (NCI-H23 lung): 29 µM | TGI (NCI/ADR-RES ovarian): 61.2 µM | TGI (T-47D breast): 4.39 µM | TGI (U251 CNS): 14 µM | TGI (A498 renal): 31.5 µM | TGI (HCT-15 colon): > 34.1 µM | TGI (M14 melanoma): 26.7 µM | TGI (HOP-62 NSCLC): 18.4 µM | TGI (IGROV1 ovarian): 20.1 µM | TGI (BT-549 breast): 34.2 µM | TGI (SK-MEL-28 melanoma): > 100 µM | TGI (SN12C renal): 27.6 µM | TGI (HL-60(TB) leukemia): 5.61 µM | TGI (NCI-H226 lung): 50.3 µM | TGI (SF-268 CNS): 32.9 µM | TGI (SNB-19 CNS): 21.1 µM | TGI (KM12 colon): 21.4 µM | TGI (HCT-116 colon): 22.4 µM | TGI (TK-10 renal): 18.4 µM | TGI (SW-620 colon): 15.9 µM | TGI (RPMI-8226 leukemia): 4.29 µM | TGI (MDA-MB-231 breast): 26.7 µM | TGI (MOLT-4 leukemia): 8.69 µM | TGI (OVCAR-3 ovarian): 3.52 µM | TGI (DU-145 prostate): 11.3 µM | TGI (PC-3 prostate): 16 µM | TGI (RXF 393 renal): 9.17 µM | TGI (A549 NSCLC): 40.8 µM | TGI (SK-MEL-5 melanoma): 29.1 µM | TGI (LOX IMVI melanoma): 6.68 µM | TGI (NCI-H460 lung): 36.6 µM | TGI (UACC-62 melanoma): 24.1 µM | TGI (CAKI-1 renal): 8.49 µM | TGI (MCF7 breast): 15.7 µM | TGI (786-0 renal): 5.54 µM | TGI (HT29 colon): 12.5 µM | TGI (MDA-N): 11.1 µM | TGI (UACC-257 melanoma): 9.57 µM | TGI (CCRF-CEM leukemia): 6.09 µM | TGI (MALME-3M melanoma): 30.1 µM | TGI (HCC-2998 colon): 12.7 µM | TGI (SK-MEL-2 melanoma): 22.4 µM | TGI (ACHN renal): 18.6 µM | TGI (SF-295 CNS): 30.5 µM | TGI (MDA-MB-435): 19.6 µM

NS(=O)(=O)c1ccc(N=Nc2c(O)c(C(=O)O)cc3ccccc23)cc1
TGI (SK-OV-3 ovarian): > 100 µM | TGI (HS 578T breast): > 100 µM | TGI (NCI-H522 lung): > 100 µM | TGI (OVCAR-8 ovarian): > 100 µM | TGI (SF-539 CNS): > 100 µM | TGI (EKVX NSCLC): > 100 µM | TGI (COLO 205 colon): > 84.2 µM | TGI (OVCAR-5 ovarian): > 100 µM | TGI (OVCAR-4 ovarian): > 100 µM | TGI (UO-31 renal): > 100 µM | TGI (K-562 leukemia): > 100 µM | TGI (SR leukemia): > 96.1 µM | TGI (HOP-92 NSCLC): > 100 µM | TGI (NCI-H23 lung): > 100 µM | TGI (NCI/ADR-RES ovarian): > 100 µM | TGI (T-47D breast): > 100 µM | TGI (U251 CNS): > 100 µM | TGI (SNB-75 CNS): > 100 µM | TGI (A498 renal): > 100 µM | TGI (HCT-15 colon): > 100 µM | TGI (M14 melanoma): > 100 µM | TGI (HOP-62 NSCLC): > 100 µM | TGI (IGROV1 ovarian): > 100 µM | TGI (BT-549 breast): > 100 µM | TGI (SK-MEL-28 melanoma): > 100 µM | TGI (SN12C renal): > 100 µM | TGI (HL-60(TB) leukemia): > 100 µM | TGI (NCI-H226 lung): > 100 µM | TGI (SF-268 CNS): > 100 µM | TGI (SNB-19 CNS): > 90.3 µM | TGI (KM12 colon): > 100 µM | TGI (HCT-116 colon): > 100 µM | TGI (TK-10 renal): > 100 µM | TGI (SW-620 colon): > 100 µM | TGI (RPMI-8226 leukemia): > 100 µM | TGI (MDA-MB-231 breast): > 100 µM | TGI (MOLT-4 leukemia): > 100 µM | TGI (OVCAR-3 ovarian): > 100 µM | TGI (DU-145 prostate): > 100 µM | TGI (PC-3 prostate): > 100 µM | TGI (RXF 393 renal): > 100 µM | TGI (A549 NSCLC): > 100 µM | TGI (SK-MEL-5 melanoma): > 100 µM | TGI (LOX IMVI melanoma): > 100 µM | TGI (NCI-H460 lung): > 100 µM | TGI (UACC-62 melanoma): > 100 µM | TGI (CAKI-1 renal): > 100 µM | TGI (MCF7 breast): > 100 µM | TGI (786-0 renal): > 100 µM | TGI (HT29 colon): > 100 µM | TGI (MDA-N): > 100 µM | TGI (UACC-257 melanoma): > 100 µM | TGI (CCRF-CEM leukemia): > 100 µM | TGI (MALME-3M melanoma): 65.9 µM | TGI (HCC-2998 colon): > 100 µM | TGI (SK-MEL-2 melanoma): > 100 µM | TGI (ACHN renal): > 100 µM | TGI (SF-295 CNS): > 100 µM | TGI (MDA-MB-435): > 100 µM
